Measured values as given in ChEMBL document CHEMBL1201862, “PubChem BioAssay data set” (2004).
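Compound exposure: 48 hours, 5 concentrations, 96-well plates. Here, GI50 denotes the concentration required for 50% inhibition of growth.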 The source made the active and inactive calls. No stated cut-off is given here; in the data, active = GI50 up to about 1.1 µM and inactive = higher. Starred links: 1 amine or outer side, 2 acyl side, 3 side chain; linkers in the order of their positions; H or OH if unused. Non-standard residues stand in square brackets, D forms with d. Residues, ends and D or L forms follow the SMILES beside them. X4 = C[C@H](N[*:1])C(=O)C(C)(C)C(=O)[*:2]; Hmpa(2S,3S) = CC[C@H](C)[C@H](O)C(=O)O; NMeY = CN[C@@H](Cc1ccc(O)cc1)C(=O)O; NMeL = CN[C@@H](CC(C)C)C(=O)O; NMeV = CN[C@H](C(=O)O)C(C)C; βAla = NCCC(=O)O

Key:
Experiment in all cases: DTP human tumour cell line panel, 48 h
SF-539 = test system: SF-539
NCI-H522 = test system: NCI-H522
OVCAR-5 = test system: OVCAR-5
DU-145 = test system: DU-145
Malme-3M = test system: Malme-3M
UO-31 = test system: UO-31
SNB-19 = test system: SNB-19
COLO 205 = test system: COLO 205
HOP-62 = test system: HOP-62
A549 = test system: A549
NCI/ADR-RES = test system: NCI/ADR-RES
A498 = test system: A498
TK-10 = test system: TK-10
OVCAR-3 = test system: OVCAR-3
IGROV-1 = test system: IGROV-1
SR = test system: SR
SW-620 = test system: SW-620
MDA-MB-231 = test system: MDA-MB-231
M14 = test system: M14
SK-MEL-5 = test system: SK-MEL-5

| Compound | GI50 (SF-539) | GI50 (NCI-H522) | GI50 (OVCAR-5) | GI50 (DU-145) | GI50 (Malme-3M) | GI50 (UO-31) | GI50 (SNB-19) | GI50 (COLO 205) | GI50 (HOP-62) | GI50 (A549) | GI50 (NCI/ADR-RES) | GI50 (A498) | GI50 (TK-10) | GI50 (OVCAR-3) | GI50 (IGROV-1) | GI50 (SR) | GI50 (SW-620) | GI50 (MDA-MB-231) | GI50 (M14) | GI50 (SK-MEL-5) |
| --- | --- | --- | --- | --- | --- | --- | --- | --- | --- | --- | --- | --- | --- | --- | --- | --- | --- | --- | --- | --- |
| CC[C@H](C)[C@@H]1OC(=O)CCNC(=O)[C@@H](C)NC(=O)C(C)(C)C(=O)[C@H](C)NC(=O)[C@H](Cc2ccc(OC)cc2)N(C)C(=O)[C@H](C(C)C)N(C)C(=O)CNC(=O)[C@H](CC(C)C)N(C)C(=O)CNC1=O (cyclo(G[NMeL]G[NMeV][NMeY](Me)[X4][dA][βAla][Hmpa(2S,3S)])) | 0.252 µM (active) | 0.0295 µM (active) | 0.724 µM (active) | 2.71 µM (inactive) | 0.217 µM (active) | 7.76 µM (inactive) | 0.111 µM (active) | 0.0252 µM (active) | 0.962 µM (active) | 0.37 µM (active) | 26.4 µM (inactive) | 1.38 µM (inactive) | 1.67 µM (inactive) | 0.621 µM (active) | 0.697 µM (active) | 0.337 µM (active) | 0.0625 µM (active) | 0.476 µM (active) | 0.885 µM (active) | 0.0879 µM (active) |
| Cc1cc2ncn(CC(=O)O)c2cc1C | > 100 µM (inactive) | > 100 µM (inactive) | > 100 µM (inactive) | > 100 µM (inactive) | > 100 µM (inactive) | > 100 µM (inactive) | > 100 µM (inactive) | > 100 µM (inactive) | > 100 µM (inactive) | > 100 µM (inactive) | > 100 µM (inactive) | > 100 µM (inactive) | > 100 µM (inactive) | > 100 µM (inactive) | > 100 µM (inactive) | > 100 µM (inactive) | > 100 µM (inactive) | > 100 µM (inactive) | > 100 µM (inactive) | > 100 µM (inactive) |
| CC[C@@H]1/C=C/C=C/C[C@H](C)[C@@H](O)[C@](C)(O)C(=O)[C@H](C)[C@@H](O)[C@H](C)C(=O)[C@H](C)[C@@H](O)[C@H](C)/C=C/C(=O)O[C@H]2[C@@H](C)[C@@H](CC1)O[C@]1(O[C@H](CC(C)O)[C@H](C)CC1=O)[C@@H]2C (stereo not given in full) | 4.41 µM (inactive) | < 0.0025 µM (active) | 3.3 µM (inactive) | 3.3 µM (inactive) | 4.93 µM (inactive) | 2.81 µM (inactive) | < 0.0025 µM (active) | < 0.0025 µM (active) | 3.18 µM (inactive) | < 0.0025 µM (active) | 0.598 µM (active) | 0.108 µM (active) | 1.22 µM (inactive) | 2.92 µM (inactive) | 5.22 µM (inactive) | 4.13 µM (inactive) | 5.57 µM (inactive) | 3.72 µM (inactive) | 3.14 µM (inactive) | < 0.0025 µM (active) |
| COc1cc(C2C3=C(COC3=O)Oc3cc4c(cc32)OCO4)ccc1OC(C)=O (stereo not given) | 0.25 µM (active) | 0.0948 µM (active) | 5.22 µM (inactive) | 0.492 µM (active) | 0.0893 µM (active) | 0.352 µM (active) | 0.35 µM (active) | 0.224 µM (active) | 1.73 µM (inactive) | 0.957 µM (active) | 0.279 µM (active) | 1.53 µM (inactive) | > 100 µM (inactive) | 0.244 µM (active) | 0.238 µM (active) | 0.179 µM (active) | 0.284 µM (active) | 0.436 µM (active) | 0.498 µM (active) | 0.106 µM (active) |
| N#Cc1c(N)nc2c(/N=N\c3ccccc3)c(N)nn2c1Nc1ccccc1 | 21.6 µM (inactive) | 17.8 µM (inactive) | 26.7 µM (inactive) | 18.2 µM (inactive) | 21.6 µM (inactive) | > 10 µM (inactive) | 18.5 µM (inactive) | 9.93 µM (inactive) | 20.3 µM (inactive) | 21.1 µM (inactive) | 20.4 µM (inactive) | 21.7 µM (inactive) | 22.3 µM (inactive) | 13.9 µM (inactive) | 10.9 µM (inactive) | 2.39 µM (inactive) | 10.8 µM (inactive) | 16 µM (inactive) | 12.1 µM (inactive) | 14.9 µM (inactive) |
| Cc1cccc2c1CC1(C2)Cc2c(C)cccc2C1=O (stereo not given) | 25.9 µM (inactive) | 17.8 µM (inactive) | 28.7 µM (inactive) | 18.8 µM (inactive) | 22.7 µM (inactive) | 23.1 µM (inactive) | 49.3 µM (inactive) | 15.6 µM (inactive) | 23.6 µM (inactive) | 22.4 µM (inactive) | 38.1 µM (inactive) | 32.1 µM (inactive) | 23.6 µM (inactive) | 23.9 µM (inactive) | 30.4 µM (inactive) | 11.2 µM (inactive) | 29.9 µM (inactive) | 23.6 µM (inactive) | 26.6 µM (inactive) | 18.2 µM (inactive) |
| CC1=NN(C(=O)c2ccccc2O)C(=O)/C1=C/c1ccco1 | 0.818 µM (active) | 1.74 µM (inactive) | 9.18 µM (inactive) | 4.74 µM (inactive) | 11.9 µM (inactive) | 0.404 µM (active) | 7.55 µM (inactive) | 10.5 µM (inactive) | 0.497 µM (active) | 7.19 µM (inactive) | 4.44 µM (inactive) | 2.43 µM (inactive) | 33.9 µM (inactive) | 0.65 µM (active) | 1.26 µM (inactive) | 2.94 µM (inactive) | 3.3 µM (inactive) | 15.1 µM (inactive) | 1.93 µM (inactive) | 1.36 µM (inactive) |
| C=C1C(=O)O[C@H]2[C@H](OC(C)=O)[C@@H](C)CCC/C(C)=C/CC[C@@]3(C)O[C@@H]3C[C@@H]12 | 1.95 µM (inactive) | 1.78 µM (inactive) | 8.26 µM (inactive) | 2.32 µM (inactive) | 16 µM (inactive) | 2.9 µM (inactive) | 13.6 µM (inactive) | 3.19 µM (inactive) | 15.6 µM (inactive) | 7.35 µM (inactive) | 1.59 µM (inactive) | 3.56 µM (inactive) | 2.13 µM (inactive) | 4.97 µM (inactive) | 2.77 µM (inactive) | 1.86 µM (inactive) | 2.58 µM (inactive) | 4.08 µM (inactive) | 4.23 µM (inactive) | 4.19 µM (inactive) |
| [N-]=[N+]=CC(=O)OC1Cc2ccccc2C1 | > 100 µM (inactive) | > 71 µM (inactive) | 73.1 µM (inactive) | 21.1 µM (inactive) | > 100 µM (inactive) | 16.6 µM (inactive) | > 100 µM (inactive) | > 72.6 µM (inactive) | > 66.8 µM (inactive) | 84.3 µM (inactive) | > 100 µM (inactive) | > 100 µM (inactive) | 97.3 µM (inactive) | > 100 µM (inactive) | > 100 µM (inactive) | > 100 µM (inactive) | > 100 µM (inactive) | > 100 µM (inactive) | > 100 µM (inactive) | > 56.6 µM (inactive) |
| COc1ccc(/N=N/C(=O)NC(CC(C)C)C(=O)NCC(=O)O)cc1 (stereo not given) | 4.18 µM (inactive) | 22.5 µM (inactive) | 13.5 µM (inactive) | 12.2 µM (inactive) | 19.7 µM (inactive) | 1.04 µM (active) | > 92.5 µM (inactive) | 4.47 µM (inactive) | 41.6 µM (inactive) | 3.29 µM (inactive) | 19.5 µM (inactive) | > 100 µM (inactive) | 25.3 µM (inactive) | 19.8 µM (inactive) | 6.27 µM (inactive) | 19.5 µM (inactive) | 12.8 µM (inactive) | > 58.2 µM (inactive) | 2.94 µM (inactive) | 3.79 µM (inactive) |
| Brc1ccc2[nH]cc(-c3nc(-c4c[nH]c5ccccc45)cs3)c2c1 | 2.9 µM (inactive) | 1.91 µM (inactive) | 1.95 µM (inactive) | 3.45 µM (inactive) | 3.17 µM (inactive) | 2.97 µM (inactive) | 3.51 µM (inactive) | 1.22 µM (inactive) | 4.58 µM (inactive) | 3.24 µM (inactive) | 2.79 µM (inactive) | 2.88 µM (inactive) | 3.56 µM (inactive) | 3.42 µM (inactive) | 1.58 µM (inactive) | 3.44 µM (inactive) | 3.16 µM (inactive) | 2.37 µM (inactive) | 1.74 µM (inactive) | 1.6 µM (inactive) |
| CN1C(=O)c2ccccc2NC(=O)C12O[C@@H]2c1cccc(O)c1 (stereo not given in full) | > 100 µM (inactive) | > 100 µM (inactive) | 95.9 µM (inactive) | > 100 µM (inactive) | > 100 µM (inactive) | > 100 µM (inactive) | > 100 µM (inactive) | > 100 µM (inactive) | > 100 µM (inactive) | > 100 µM (inactive) | > 100 µM (inactive) | > 100 µM (inactive) | > 100 µM (inactive) | > 100 µM (inactive) | > 100 µM (inactive) | > 100 µM (inactive) | > 100 µM (inactive) | > 100 µM (inactive) | > 100 µM (inactive) | > 100 µM (inactive) |
